Laboratory results as given in ChEMBL document CHEMBL3808310, “New anti-inflammatory sterols from a gorgonian Pinnigorgia sp” (2016).

Columns and labels:
RAW264.7 [1] = test: Antiinflammatory activity in mouse RAW264.7 cells assessed as reduction in LPS-induced iNOS protein levels at 10 uM preincubated for 10 mins followed by LPS challenge for 16 hrs by Western blot analysis; format: functional; design: scale not given: the % may be the effect or the level left
RAW264.7 [2] = test: Antiinflammatory activity in mouse RAW264.7 cells assessed as reduction in LPS-induced COX-2 protein levels at 10 uM preincubated for 10 mins followed by LPS challenge for 16 hrs by Western blot analysis; format: functional; design: scale not given: the % may be the effect or the level left

| Structure (SMILES) | Activity (RAW264.7 [1]) [%] | Activity (RAW264.7 [2]) [%] |
| --- | --- | --- |
| CC(=O)OCC[C@]1(C)[C@@H]([C@H](C)CC[C@H](C)C(C)C)CC[C@H]1C1=C[C@H](O)[C@@]2(O)C[C@@H](O)CC[C@]2(C)C1=O | 33.2 | 54 |
| C[C@@H]1C[C@H]2[C@@H]3CCC4=CC(=O)C=C[C@]4(C)[C@@]3(F)[C@@H](O)C[C@]2(C)[C@@]1(O)C(=O)CO [DEXAMETHASONE] | 9.6 | 1.7 |
| CC(C)[C@@H](C)/C=C/[C@@H](C)[C@H]1CC[C@H]2C3=C(CC[C@]12C)[C@@]1(C)CC[C@H](O)C[C@]12O[C@@H]2[C@@H]3O | 41.1 | 54 |
